Calls of active or inactive are those of the source. The rule behind the calls is not given here.

In PubChem BioAssay AID1648 (Sanford-Burnham Center for Chemical Genomics, 2009) one finds Kd data, which are given here for 105 compounds.

The target of the test is Serine/threonine-protein kinase mTOR (Homo sapiens) (UniProt P42345). Nature of the test: binders of mTOR FRB domain, biophysical, NMR (AID 1648). To be noted: NMR binding to FRB domain, chemical shift.
Chain of Serine/threonine-protein kinase mTOR (Homo sapiens) (P42345 2015-2114): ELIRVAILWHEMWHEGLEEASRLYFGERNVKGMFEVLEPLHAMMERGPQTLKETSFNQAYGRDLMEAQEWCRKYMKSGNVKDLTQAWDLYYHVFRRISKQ
`COc1c2ccoc2nc2c(OC)c(OCC(O)C(C)(C)O)ccc12` (stereo not given): the Kd (commonly the equilibrium constant for the complex coming apart) is > 4 mM (inactive).

Take `O=c1n(-c2cccc(Cl)c2)c(=O)n2n1CCC2`: the Kd was > 4 mM (inactive).

On to `Cn1c(SCC(N)=O)nc2c1c(=O)[nH]c(=O)n2C`, for which the Kd is > 4 mM (inactive).

For `Cc1ccccc1-n1c(-c2cccnc2)n[nH]c1=S`, the Kd was > 4 mM (inactive).

Consider `CC1CN(C2=NCCN2)CC(C)O1` (stereo not given), for which the Kd is > 4 mM (inactive).

For `COCC(=O)N1CCCc2ccccc21`, the Kd was > 4 mM (inactive).

Take `Cc1ccccc1C(=O)Nn1cnnc1`: the Kd was > 4 mM (inactive).

As to `COc1ccc(C)cc1S(=O)(=O)NC1CCCC1`, the Kd is > 4 mM (inactive).

As for `CC(=O)NCCc1cc2ccc(C)c(C)c2[nH]c1=O`, the Kd was > 4 mM (inactive).

Take `Cc1cc(C)n(C2CCS(=O)(=O)C2)n1` (stereo not given): the Kd is > 4 mM (inactive).

Consider `COc1ccc([C@@H]2CC(=O)c3c(O)cc(O)cc3O2)cc1O`, for which the Kd is > 4 mM (inactive).

Turning to `CC1=C/C(=C\c2c(O)[nH]c(=O)[nH]c2=O)C(C)=N1`, the Kd is > 4 mM (inactive).

Consider `COc1ncnc(N)c1[N+](=O)[O-]`, for which the Kd was > 4 mM (inactive).

For `NC(=O)CC(=O)NC12CC3CC(CC(C3)C1)C2`, the Kd was > 4 mM (inactive).

`CCOC(=O)c1c(C)nc2sccn12`: the Kd is > 4 mM (inactive).

On to `O=C1CCC(c2cccs2)=NN1`, for which the Kd was > 4 mM (inactive).

Regarding `COc1c2c(c(CC=C(C)C)c3oc(=O)c(-c4ccc(O)cc4)c(O)c13)OC(C)(C)C=C2`, the Kd is > 4 mM (inactive).

Consider `Nc1nc(-c2cccnc2)nn1C(=O)Cc1ccccc1`, for which the Kd is > 4 mM (inactive).

Take `O=C1CS/C(=N/N=C/c2cccs2)N1`: the Kd is > 4 mM (inactive).

`N#CCCn1c(=O)oc2ccccc21`: the Kd is > 4 mM (inactive).

In the case of `Cc1cc(=O)[nH]c2ccccc12`, the Kd is > 4 mM (inactive).

As to `Cc1ccccc1NC(=S)NCCO`, the Kd is > 4 mM (inactive).

For the compound `Nc1ccc(Oc2ccccc2)nc1`, the Kd was > 4 mM (inactive).

As for `CC1(C)Oc2ccc(N)cc2O1`, the Kd is > 4 mM (inactive).

For `Cc1cc(C(=O)N2CCOCC2)c(C)o1`, the Kd was > 4 mM (inactive).

With `Nc1ncnc2c1ncn2C1O[C@H](COP(=O)(O)O)[C@@H](O)[C@H]1O` (stereo not given in full), the Kd is > 4 mM (inactive).

As to `CC(C)=CCc1c2c(c(O)c3c(=O)c(O)c(-c4ccccc4)oc13)C=CC(C)(C)O2`, the Kd was > 4 mM (inactive).

For `CC(C)(C(N)=O)/[N+]([O-])=C\c1ccccc1`, the Kd was > 4 mM (inactive).

As for `Cc1ccc(C(=O)NC2=NCCS2)o1`, the Kd was > 4 mM (inactive).

For `C=CC(C)(O)CC/C=C(\C)CCC=C(C)C` (stereo not given), the Kd is > 4 mM (inactive).

As for `OCC1CN(Cc2ccccc2)CCO1` (stereo not given), the Kd is > 4 mM (inactive).

In the case of `Nc1nc2c3ccccc3nc(Cc3ccccc3)n2n1`, the Kd was > 4 mM (inactive).

On to `O=c1ccc(=O)n(CN2CCc3ccccc3C2)[nH]1`, for which the Kd is > 4 mM (inactive).

For the compound `Cc1ccc(C(=O)N2CCC(C(N)=O)CC2)cc1C`, the Kd was > 4 mM (inactive).

On to `CC(=O)Oc1c2c(c(CC=C(C)C)c3c1C(=O)C1=C[C@@H]4CC5C(C)(C)OC(C/C=C(\C)C(=O)O)(C4=O)[C@@]15O3)OC(C)(CCC=C(C)C)C=C2` (stereo not given in full), for which the Kd was > 4 mM (inactive).

For `OCc1ccc(-c2cccs2)s1`, the Kd was > 4 mM (inactive).

`COc1ccccc1CNc1nc2nc(C)cc(=O)n2[nH]1`: the Kd is > 4 mM (inactive).

On to `Nc1nc2ccccc2n1CCN1CCCC1`, for which the Kd is > 4 mM (inactive).

With `CC(=O)Nc1ccc(C)cc1NC(C)=O`, the Kd is > 4 mM (inactive).

As to `CNc1nc(OC)nc(N2CCOCC2)n1`, the Kd was > 4 mM (inactive).

`O=C(Nn1cnnc1)c1cc2c(s1)CCCC2`: the Kd was > 4 mM (inactive).

In the case of `O=C(Nc1nnc(-c2ccccc2Cl)o1)c1ccco1`, the Kd is > 4 mM (inactive).

For the compound `Cc1nn(C)c2sc(CO)cc12`, the Kd is > 4 mM (inactive).

Regarding `Clc1ccc2c(N3CCNCC3)ccnc2c1`, the Kd is > 4 mM (inactive).

For the compound `O=C1C2C3C=CC(C3)C2C(=O)N1CCO` (stereo not given), the Kd is > 4 mM (inactive).

For the compound `O=C(c1ccccc1)c1cncc(Br)c1`, the Kd is > 4 mM (inactive).

With `C[C@@H](N)[C@@H](O)c1ccccc1`, the Kd was > 4 mM (inactive).

In the case of `OC1CCCN(Cc2ccccc2)C1` (stereo not given), the Kd is > 4 mM (inactive).

In the case of `OCC1=Cc2ccccc2OC1`, the Kd was > 4 mM (inactive).

Turning to `Cc1nc(-c2ccc(CO)s2)cs1`, the Kd is > 4 mM (inactive).

Consider `O=C(c1ccccc1)N1CCNCC1`, for which the Kd is > 4 mM (inactive).

For `CC(=O)c1sc(NC(=O)C=C(C)C)nc1C`, the Kd was > 4 mM (inactive).

Take `O=C(O)c1ccc(-c2cccs2)s1`: the Kd is > 4 mM (inactive).

With `O=C(O)c1c[nH]c2ccccc12`, the Kd was > 4 mM (inactive).

For the compound `COC(=O)NCc1cc2cc(Cl)ccc2[nH]1`, the Kd is > 4 mM (inactive).

As to `O=C(O)C1CN2CCC1CC2` (stereo not given), the Kd is > 4 mM (inactive).

Regarding `Cc1nc2cc(Cl)ccc2n1CCO`, the Kd was > 4 mM (inactive).

In the case of `O=C(c1ccccc1)c1ccccc1C(=O)N1CCCC1`, the Kd was > 4 mM (inactive).

For `Fc1ccc(N2CCNCC2)cc1`, the Kd was > 4 mM (inactive).

On to `O=C(Nc1ccccc1C(F)(F)F)N1CCCCCC1`, for which the Kd was > 4 mM (inactive).

Consider `CNC(=O)C(=O)Nc1ccc(F)cc1`, for which the Kd is > 4 mM (inactive).

As for `CCOc1ccc(C)cc1S(=O)(=O)n1ccc(C)n1`, the Kd was > 4 mM (inactive).

Take `Cc1cc(C(=O)Nc2sc3c(c2C#N)CCC3)no1`: the Kd is > 4 mM (inactive).

Regarding `Cc1ccsc1/C=c1\sc2ncnn2c1=O`, the Kd is > 4 mM (inactive).

As for `O=c1[nH]c2sc3c(c2c2nncn12)CCCC3`, the Kd was > 4 mM (inactive).

As for `C=C1C(=O)O[C@@H]2C[C@@]3(C)CCC[C@H](C)C3=C[C@H]12`, the Kd is > 4 mM (inactive).

For `COc1ccc2cnn(-c3ccccc3)c(=O)c2c1OC`, the Kd was > 4 mM (inactive).

With `CC(C)=CC1C(C(=O)O)C1(C)C` (stereo not given), the Kd was > 4 mM (inactive).

Take `COc1ccc2c(c1)O[C@H]1c3ccc(OC)cc3OC[C@@H]21`: the Kd is > 4 mM (inactive).

As for `COc1ccc(C(=O)NC2=NCCS2)cc1OC`, the Kd was > 4 mM (inactive).

On to `Nc1ccc2c(c1)COc1ccccc1O2`, for which the Kd is > 4 mM (inactive).

Take `COc1ccc2cc3[n+](cc2c1OC)CCc1cc2c(cc1-3)OCO2`: the Kd is > 4 mM (inactive).

`CC(=O)N1CC2(C)CN(C(C)=O)CC(C)(C1)C2`: the Kd was > 4 mM (inactive).

As to `CS(=O)(=O)Nc1ccc(C(=O)N2CCCCC2)cc1`, the Kd is > 4 mM (inactive).

Consider `CCC(=O)Nc1cc(C(C)C)c(O)cc1C`, for which the Kd was > 4 mM (inactive).

With `CS(=O)(=O)NC1CCN(Cc2ccccc2)CC1`, the Kd was > 4 mM (inactive).

Turning to `O=C(Nc1ccc(N2CCOCC2)cc1)C1CC1`, the Kd was > 4 mM (inactive).

As for `CC(=O)Nc1ccn(-c2ccccc2)n1`, the Kd was > 4 mM (inactive).

Turning to `C/C=C(\C)C(=O)O[C@H]1C[C@@H](OC(C)=O)[C@@]2(C(=O)OC)CO[C@@H]3C2[C@]12CO[C@](O)(C(=O)OC)[C@H]2[C@](C)(C12O[C@@]1(C)[C@H]1C[C@@H]2OC2OC=C[C@@]21O)[C@@H]3O` (stereo not given in full), the Kd is > 4 mM (inactive).

`Cn1c(O)c(C2=NC(=S)NC2=O)c2ccccc21`: the Kd is > 4 mM (inactive).

Consider `O=c1[nH]cc(N2CCCCC2)c(=O)[nH]1`, for which the Kd was > 4 mM (inactive).

As for `CN(C)c1nc(N)nc(-c2nc3ccccc3s2)n1`, the Kd was > 4 mM (inactive).

Turning to `O=C(O)C1CC2CC1CCC2O` (stereo not given), the Kd is > 4 mM (inactive).

With `CC12CN(CC#N)CC(C)(CN(CC#N)C1)C2=O`, the Kd is > 4 mM (inactive).

With `CC(=O)Nc1ccc(NC2SC(=O)NC2=O)cc1` (stereo not given), the Kd was > 4 mM (inactive).

In the case of `C=C[C@](C)(O)CCC=C(C)C`, the Kd was > 4 mM (inactive).

As for `CC1(C)CC(=O)c2cnn(-c3nc4ccccc4[nH]3)c2C1`, the Kd was > 4 mM (inactive).

`COc1ccc(/C=C2/C(=O)N=C(N)N2C)cc1OC`: the Kd is > 4 mM (inactive).

Turning to `NC(=O)c1ccc(N2C(=O)C=CC2=O)cc1Cl`, the Kd is > 4 mM (inactive).

Turning to `O=C1CCCN1c1ccc(S(=O)O)cc1`, the Kd is > 4 mM (inactive).

Turning to `Nc1ccccc1N1CCOCC1`, the Kd is > 4 mM (inactive).

As for `CC(C)=CCc1c(O)cc(C)oc1=O`, the Kd is > 4 mM (inactive).

Regarding `Cc1cc(O)c2c(c1O)C(=O)c1c(O)cc(C)c(O)c1C2=O`, the Kd is > 4 mM (inactive).

Regarding `N=C1/C(=C\c2ccccc2)C(=O)N=C2SC=NN12`, the Kd is > 4 mM (inactive).

Take `O=c1[nH]c(=O)c2[nH]cnc2[nH]1`: the Kd was > 4 mM (inactive).

Take `O=c1oc(-c2ccccc2)nc2c1cnn2-c1ccccc1`: the Kd is > 4 mM (inactive).

As for `NC(=O)C1CC2C=CC1C2` (stereo not given), the Kd was > 4 mM (inactive).

As for `O=c1nc(N2CCOCC2)nc2n1CCO2`, the Kd is > 4 mM (inactive).

As for `COC(=O)c1c[nH]c2ccccc12`, the Kd is > 4 mM (inactive).

For `Cc1cc(=O)oc2cc(O)c(O)cc12`, the Kd is > 4 mM (inactive).

On to `Cc1ccc(NC(=O)C2CCN(S(C)(=O)=O)CC2)cc1`, for which the Kd was > 4 mM (inactive).

As to `Cc1cc(-c2ccccc2)nc2cc(C(N)=O)nn12`, the Kd is > 4 mM (inactive).

Turning to `CC(C)CCn1cnc2c1c(=O)n(C)c(=O)n2C`, the Kd is > 4 mM (inactive).

On to `CN(C(=O)NC1CCS(=O)(=O)C1)C1CCCCC1` (stereo not given), for which the Kd is > 4 mM (inactive).

For the compound `c1n[nH]cc1-c1cn[nH]c1`, the Kd is > 4 mM (inactive).
